Assay type in all cases: in vivo
The subject of data set [1] is Beet Armyworm (Spodoptera exigua, LAPHEG). In words: Bioassay on Beet Armyworm (BAW), 128-well diet tray assay. The settings on record: 168 h, 50 μg/cm^2 on artificial diet, second instar larvae, 25° C., five to seven days, average of eight wells, read-out: BAW % Control (or Mortality) rating. The method, then: (§1) Certain molecules disclosed in this document were tested against BAW and CL using procedures described in the following examples. In the reporting of the results, the “BAW & CL Rating Table” was used (See Table Section).
Bioassays on BAW were conducted using a 128-well diet tray assay. One to five second instar BAW larvae were placed in each well (3 mL) of the diet tray that had been previously filled with approximately 1.5 mL of artificial diet to which 50 μg/cm^2 of the test molecule (dissolved in 50 μL of 90:10 acetone-water mixture) had been applied (to each of eight wells) and then allowed to dry. Trays were covered with a clear self-adhesive cover, vented to allow gas exchange, and held at 25° C., 14:10 light-dark for five to seven days. Percent mortality was recorded for the larvae in each well; activity in the eight wells was then averaged. The results are indicated in the table entitled “Table ABC: Biological Results” (See Table Section).

Data set [2] relates to Cabbage Looper (Trichoplusia ni, TRIPNI). In words: Bioassay on Cabbage Looper (CL), 128-well diet tray assay. The following applies: 168 h, 50 μg/cm^2 on artificial diet, second instar larvae, 25° C., five to seven days, average of eight wells, read-out: CL % Control (or Mortality) rating. The method, then:
as §1
Bioassays on CL were conducted using a 128-well diet tray assay, one to five second instar CL larvae were placed in each well (3 mL) of the diet tray that had been previously filled with 1 mL of artificial diet to which 50 μg/cm^2 of the test molecule (dissolved in 50 μL of 90:10 acetone-water mixture) had been applied (to each of eight wells) and then allowed to dry. Trays were covered with a clear self-adhesive cover, vented to allow gas exchange, and held at 25° C., 14:10 light-dark for five to seven days. Percent mortality was recorded for the larvae in each well; activity in the eight wells was then averaged. The results are indicated in the table entitled “Table ABC: Biological Results” (See Table Section).

In data set [3] the test system is Yellow Fever Mosquito (Aedes aegypti, AEDSAE). The data set can be described thus: Bioassay on Yellow Fever Mosquito (YFM) larvae, 96-well plate. The settings on record: about 1 day-old larvae, room temperature, 3 days, scored on mortality. Here is the method: Certain molecules disclosed in this document were tested against YFM using procedures described in the following paragraph. In the reporting of the results, the “GPA & YFM Rating Table” was used (See Table Section).
Master plates containing 400 μg of a molecule dissolved in 100 μL of dimethyl sulfoxide (DMSO) (equivalent to a 4000 ppm solution) are used. A master plate of assembled molecules contains 15 μL per well. To this plate, 135 μL of a 90:10 water/acetone mixture is added to each well. A robot is programmed to dispense 15 μL aspirations from the master plate into an empty 96-well shallow plate (“daughter” plate). There are 6 reps (“daughter” plates) created per master. The created “daughter” plates are then immediately infested with YFM larvae.
The day before plates are to be treated, mosquito eggs are placed in Millipore water containing liver powder to begin hatching (4 g. into 400 mL). After the “daughter” plates are created using the robot, they are infested with 220 μL of the liver powder/larval mosquito mixture (about 1 day-old larvae). After plates are infested with mosquito larvae, a non-evaporative lid is used to cover the plate to reduce drying. Plates are held at room temperature for 3 days prior to grading. After 3 days, each well is observed and scored based on mortality. The results are indicated in the table entitled “Table ABC: Biological Results” (See Table Section).

Take `O=C(NCCCCl)c1cc(NC(=O)[C@H]2[C@H](c3cc(Cl)cc(Cl)c3)C2(Cl)Cl)ccc1Cl` (relative stereo) [F57, trans-2-Chloro-N-(3-chloropropyl)-5-(2,2-dichloro-3-(3,5-dichlorophenyl)cyclopropane-1-carboxamido)benzamide]: the mortality at 50 µg/cm2 in data set [1] and in data set [2] was 50 to 100% each time. Moreover, the “YFM % Control (or Mortality) rating” value in data set [3] was “D (No activity noticed in this bioassay)”.

In the case of `COCCOCCCNC(=O)c1cc(NC(=O)[C@H]2[C@H](c3cc(Cl)cc(Cl)c3)C2(Cl)Cl)ccc1Cl` (relative stereo) [F58, trans-2-Chloro-5-(2,2-dichloro-3-(3,5-dichlorophenyl)cyclopropane-1-carboxamido)-N-(3-(2-methoxyethoxy)propyl)benzamide], the mortality at 50 µg/cm2 in data set [1] and in data set [2] was 50 to 100% in each case. The “YFM % Control (or Mortality) rating” value in data set [3] is on record as “A (80-100)”.

`O=C(NCCC(F)(F)C(F)(F)F)c1cc(NC(=O)[C@H]2[C@H](c3cc(Cl)cc(Cl)c3)C2(Cl)Cl)ccc1Cl` (relative stereo) [F60, trans-2-Chloro-5-(2,2-dichloro-3-(3,5-dichlorophenyl)cyclopropane-1-carboxamido)-N-(3,3,4,4,4-pentafluorobutyl)benzamide]: the mortality at 50 µg/cm2 in data set [1] and in data set [2] was 50 to 100% each time. Moreover, the “YFM % Control (or Mortality) rating” value in data set [3] was “D (No activity noticed in this bioassay)”.

Turning to `O=C(NCC(F)(F)C(F)(F)C(F)(F)F)c1cc(NC(=O)[C@H]2[C@H](c3cc(Cl)cc(Cl)c3)C2(Cl)Cl)ccc1Cl` (relative stereo) [F61, trans-2-Chloro-5-(2,2-dichloro-3-(3,5-dichlorophenyl)cyclopropane-1-carboxamido)-N-(2,2,3,3,4,4,4-heptafluorobutyl)benzamide], the mortality at 50 µg/cm2 in data set [1] and in data set [2] was 50 to 100% in each case. For the same compound, in data set [3], the “YFM % Control (or Mortality) rating” value is reported as “D (No activity noticed in this bioassay)”.

Turning to `CCCN(C)C(=O)c1cc(NC(=O)[C@H]2[C@H](c3cc(Cl)cc(Cl)c3)C2(Cl)Cl)ccc1Cl` (relative stereo) [F62, trans-2-Chloro-5-(2,2-dichloro-3-(3,5-dichlorophenyl)cyclopropane-1-carboxamido)-N-methyl-N-propylbenzamide], the mortality at 50 µg/cm2 in data set [1] and in data set [2] was 50 to 100% throughout. The “YFM % Control (or Mortality) rating” value in data set [3] is “D (No activity noticed in this bioassay)”.

For the compound `CCN(C)C(=O)c1cc(NC(=O)[C@H]2[C@H](c3cc(Cl)cc(Cl)c3)C2(Cl)Cl)ccc1Cl` (relative stereo) [F63, trans-2-Chloro-5-(2,2-dichloro-3-(3,5-dichlorophenyl)cyclopropane-1-carboxamido)-N-ethyl-N-methylbenzamide], the mortality at 50 µg/cm2 in data set [1] and in data set [2] was 50 to 100% each time. Also, the “YFM % Control (or Mortality) rating” value in data set [3] was “D (No activity noticed in this bioassay)”.

Take `CN(CCC(F)(F)F)C(=O)c1cc(NC(=O)[C@H]2[C@H](c3cc(Cl)cc(Cl)c3)C2(Cl)Cl)ccc1Cl` (relative stereo) [F64, trans-2-Chloro-5-(2,2-dichloro-3-(3,5-dichlorophenyl)cyclopropane-1-carboxamido)-N-methyl-N-(3,3,3-trifluoropropyl)benzamide]: the mortality at 50 µg/cm2 in data set [1] and in data set [2] was 50 to 100% each time. Besides, in data set [3], the “YFM % Control (or Mortality) rating” value is on record as “D (No activity noticed in this bioassay)”.

For `COCCN(C)C(=O)c1cc(NC(=O)[C@H]2[C@H](c3cc(Cl)cc(Cl)c3)C2(Cl)Cl)ccc1Cl` (relative stereo) [F67, trans-2-Chloro-5-(2,2-dichloro-3-(3,5-dichlorophenyl)cyclopropane-1-carboxamido)-N-(2-methoxyethyl)-N-methylbenzamide], the mortality at 50 µg/cm2 in data set [1] and in data set [2] was 50 to 100% in each case. Moreover, in data set [3], the “YFM % Control (or Mortality) rating” value is “D (No activity noticed in this bioassay)”.

For the compound `CSCCN(C)C(=O)c1cc(NC(=O)[C@H]2[C@H](c3cc(Cl)cc(Cl)c3)C2(Cl)Cl)ccc1Cl` (relative stereo) [F68, trans-2-Chloro-5-(2,2-dichloro-3-(3,5-dichlorophenyl)cyclopropane-1-carboxamido)-N-methyl-N-(2-(methylthio)ethyl)benzamide], the mortality at 50 µg/cm2 in data set [1] and in data set [2] was 50 to 100% throughout. Further, the “YFM % Control (or Mortality) rating” value in data set [3] is on record as “D (No activity noticed in this bioassay)”.

As for `CN(CC1CC1)C(=O)c1cc(NC(=O)[C@H]2[C@H](c3cc(Cl)cc(Cl)c3)C2(Cl)Cl)ccc1Cl` (relative stereo) [F69, trans-2-Chloro-N-(cyclopropylmethyl)-5-(2,2-dichloro-3-(3,5-dichlorophenyl)cyclopropane-1-carboxamido)-N-methylbenzamide], the mortality at 50 µg/cm2 in data set [1] and in data set [2] was 50 to 100% in each case. Besides, in data set [3], the “YFM % Control (or Mortality) rating” value is on record as “D (No activity noticed in this bioassay)”.

`O=C(NCC1CC(F)(F)C1)c1cc(NC(=O)[C@H]2[C@H](c3cc(Cl)cc(Cl)c3)C2(Cl)Cl)ccc1Cl` (relative stereo) [F70, trans-2-Chloro-5-(2,2-dichloro-3-(3,5-dichlorophenyl)cyclopropane-1-carboxamido)-N-((3,3-difluorocyclobutyl)methyl)benzamide]: the mortality at 50 µg/cm2 in data set [1] and in data set [2] was 50 to 100% each time. Also, in data set [3], the “YFM % Control (or Mortality) rating” value is reported as “D (No activity noticed in this bioassay)”.

Turning to `O=C(Nc1ccc(Cl)c(C(=O)N2CCC(F)(F)C2)c1)[C@H]1[C@H](c2cc(Cl)cc(Cl)c2)C1(Cl)Cl` (relative stereo) [F71, trans-2,2-Dichloro-N-(4-chloro-3-(3,3-difluoropyrrolidine-1-carbonyl)phenyl)-3-(3,5-dichlorophenyl)cyclopropane-1-carboxamide], the mortality at 50 µg/cm2 in data set [1] and in data set [2] was 50 to 100% each time. Further, the “YFM % Control (or Mortality) rating” value in data set [3] was “D (No activity noticed in this bioassay)”.

With `O=C(NCCCC(F)(F)F)c1cc(NC(=O)[C@H]2[C@H](c3cc(Cl)cc(Cl)c3)C2(Cl)Cl)ccc1Cl` (relative stereo) [F72, trans-2-Chloro-5-(2,2-dichloro-3-(3,5-dichlorophenyl)cyclopropane-1-carboxamido)-N-(4,4,4-trifluorobutyl)benzamide], the mortality at 50 µg/cm2 in data set [1] and in data set [2] was 50 to 100% in each case. Also, the “YFM % Control (or Mortality) rating” value in data set [3] is listed as “A (80-100)”.

Consider `CN(CC1CC(F)(F)C1)C(=O)c1cc(NC(=O)[C@H]2[C@H](c3cc(Cl)cc(Cl)c3)C2(Cl)Cl)ccc1Cl` (relative stereo) [F73, trans-2-Chloro-5-(2,2-dichloro-3-(3,5-dichlorophenyl)cyclopropane-1-carboxamido)-N-((3,3-difluorocyclobutyl)methyl)-N-methylbenzamide], for which the mortality at 50 µg/cm2 in data set [1] and in data set [2] was 50 to 100% in each case. The “YFM % Control (or Mortality) rating” value in data set [3] is recorded as “A (80-100)”.

In the case of `CC(O)CNC(=O)c1cc(NC(=O)[C@H]2[C@H](c3cc(Cl)cc(Cl)c3)C2(Cl)Cl)ccc1Cl` (relative stereo) [F78, trans-2-Chloro-5-(2,2-dichloro-3-(3,5-dichlorophenyl)cyclopropane-1-carboxamido)-N-(2-hydroxypropyl)benzamide], the mortality at 50 µg/cm2 in data set [1] and in data set [2] was 50 to 100% throughout. In addition, the “YFM % Control (or Mortality) rating” value in data set [3] is on record as “A (80-100)”.

A word on the mortality: it is the percentage killed.

Source of the values: US9795140B2, “Molecules having pesticidal utility, and intermediates, compositions, and processes, related thereto” (priority 2015, dated 2017).
